Where two headings read alike, the source gives them in different places.
Key:
[1] = Solubility and crystal precipitation in solution; type: physicochemical
Method: (§1) Guanosine was dissolved in DMSO and diluted in the reaction buffer for subsequent assays.
MSU crystals were prepared by the recrystallization of oversaturated sUA according to a previous report ([Martinon et al., 2006]). Improper preparation of sUA solution may introduce crystals to cause false-positive or false-negative results. […] In this study, the sUA solution was prepared according to an improved protocol ([Ma et al., 2020]). […] Then, sUA solution was immediately filtered by 0.2 μm filters and diluted to experimental concentration (up to 10 mg/dL, 595 μM) for cell experiments. […]

CD38 = test: Hydrolase and cyclase activities of human and murine CD38; type: biochemical; settings: for Effect on hydrolase and cyclase activities of human and murine CD38: sUA precursors and metabolite, above physiological levels, Figure 2B, C and supplement 1A–C; for Effect on CD38 activity: analogs and fragments, 5 to 500 μM, recombinant hCD38, THP-1 cells, WT lung tissues, Figure 2D, E
Method: The hydrolase activity of CD38 was measured according to a previous report ([de Oliveira et al., 2018]) with minor modifications. CD38 hydrolase activity was measured using 50 μM ε-NAD^+ as a substrate in hydrolase reaction buffer (250 mM sucrose, 40 mM Tris-HCl, pH 7.4). Briefly, cells or tissues were directly homogenized in blank reaction buffer on ice, and recombinant hCD38 was diluted in blank reaction buffer for subsequent assays. The tissue homogenates were centrifuged to collect the supernatant for enzyme assays. The loading volume of enzyme was 4–30 μL, the total volume of the reaction system was 3 mL. To detect enzyme inhibition, except when specified, the ligands were directly dissolved in hydrolase reaction buffer before pH adjustment, after which, the pH was immediately adjusted to 7.4. All reaction buffers, with or without ligands, were freshly prepared before each assay. For measurement of hydrolase activity, 3 mL reaction buffer containing enzyme, ε-NAD^+, and ligands at indicated concentrations was maintained at 37°C with constant stirring.
The cyclase activity of CD38 was measured as previously described ([Higashida et al., 1999]; [Jin et al., 2007]). CD38 cyclase activity was measured using 60 μM NGD as a substrate in cyclase reaction buffer (100 mM KCl, 10 μM CaCl2, and 50 mM Tris-HCl, pH 6.6). Tissues were cut into pieces and suspended in the buffer (5 mM MgCl2, 10 mM Tris-HCl, pH 7.3) at 4°C for 30 min. Then, the suspension was homogenized on ice, and the supernatant was collected after centrifugation. To collect the crude membrane fractions, the supernatant was centrifuged at 105,000×g for 30 min. The final pellet was resuspended in 10 mM Tris-HCl solution (pH 6.6) for cyclase assay. Homogenates of THP-1 or A549 cells, and recombinant hCD38 were used directly for cyclase assays. The loading volume of enzyme was 4–20 μL, the total volume of reaction system was 3 mL. To detect enzyme inhibition, except when specified, the ligands were directly dissolved in cyclase reaction buffer before pH adjustment, after which, the pH was immediately adjusted to 6.6. All reaction buffers, with or without ligands, were freshly prepared before each assay. For measurement of cyclase activity, 3 mL reaction buffer containing enzyme, NGD, and ligands at indicated concentrations was maintained at 37°C with constant stirring.
The reaction buffer for hydrolase or cyclase assays was excited at 300 nm, and fluorescence emission was measured every second at 410 nm by Shimazu RF-6000 spectrofluorometer. Hydrolase or cyclase activity was calculated from the linear portion of the time course by fitting a linear function to the data points recorded within 5 min.
as §1
For reversibility test, recombinant hCD38 was pre-incubated for 30 min in four conditions: (1) control reaction buffer; (2) in the presence of 100 μM substrate (ε-NAD^+ or NGD); (3) 500 μM sUA; (4) both substrate and sUA. Subsequently, the enzyme was diluted 100-fold in reaction buffer in the presence or absence of 500 μM sUA for activity assays using ε-NAD^+ or NGD. Naïve THP-1 and A549 cells were incubated with RPMI-1640 medium in the presence or absence of 500 μM sUA for 2 hr. The cells were collected and homogenized in the reaction buffer on ice with or without 500 μM sUA, samples were then diluted 100-fold in reaction buffer with or without 500 μM sUA for enzyme assay. Control group was not treated with sUA in all steps; sUA group was treated with sUA in each step; sUA release group was treated with sUA prior to dilution in sUA-free buffer for enzyme assays.

Compound	Effect on hydrolase and cyclase activities of human and murine CD38 (CD38)	other results
Nc1nc2c(ncn2[C@@H]2O[C@H](CO)[C@@H](O)[C@H]2O)c(=O)[nH]1 [Guanosine, guanosine, reference compound]	hardly inhibited	Solubility in reaction buffer ([1]; tested only at 50 μM): limited solubility
O=c1cc[nH]c(=O)[nH]1 [Uracil, uracil]	–	Effect on CD38 activity (CD38): did not affect CD38 activity
Nc1ncnc2c1ncn2[C@@H]1O[C@H](CO)[C@@H](O)[C@H]1O [Adenosine, adenosine]	hardly inhibited	–
8-oxoguanine [8-OG, reference compound]	–	Solubility in reaction buffer [1]: limited solubility
O=c1[nH]c(=O)c2nc[nH]c2[nH]1 [Xanthine, xanthine]	hardly inhibited	–
O=c1[nH]cnc2nc[nH]c12 [Hypoxanthine, hypoxanthine]	hardly inhibited	–
O=c1[nH]cc[nH]1 [1,3-DHI-2-one, 1,3-dihydroimidazol-2-one]	–	Effect on CD38 activity (CD38): did not affect CD38 activity
NC(=O)NC1NC(=O)NC1=O (stereo not drawn) [Allantoin, allantoin]	hardly inhibited	–

From PMC11554305, “Functional identification of soluble uric acid as an endogenous inhibitor of CD38” (eLife, 2024)
